Results published in ChEMBL document CHEMBL1201862, “PubChem BioAssay data set” (2004).
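Interpolation was linear, between the two tested concentrations surrounding the appropriate level; five concentrations were tested over 48 hours in 96-well plates. GI50: concentration for 50% inhibition of growth.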 Calls of active or inactive are those of the source. Cut-off read from the data, not from the text of the source: active = GI50 up to about 1.1 µM and inactive = higher.

Legend:
Experiment in all cases: growth of human tumour cells (NCI), 48 h
SF-295 = tested on: SF-295
IGROV-1 = tested on: IGROV-1
Malme-3M = tested on: Malme-3M
NCI-H522 = tested on: NCI-H522
SF-268 = tested on: SF-268
NCI-H226 = tested on: NCI-H226
SK-MEL-28 = tested on: SK-MEL-28
U-251 = tested on: U-251
SF-539 = tested on: SF-539
ACHN = tested on: ACHN
M14 = tested on: M14
UACC-62 = tested on: UACC-62
COLO 205 = tested on: COLO 205
K562 = tested on: K562
HCT-15 = tested on: HCT-15
CCRF-CEM = tested on: CCRF-CEM
SK-MEL-2 = tested on: SK-MEL-2
DMS-273 = tested on: DMS-273
DMS-114 = tested on: DMS-114
LXFL 529 = tested on: LXFL 529
SW-620 = tested on: SW-620
OVCAR-8 = tested on: OVCAR-8
HOP-18 = tested on: HOP-18
HOP-92 = tested on: HOP-92
SNB-75 = tested on: SNB-75
SN12C = tested on: SN12C
SK-OV-3 = tested on: SK-OV-3
A498 = tested on: A498
HL-60 = tested on: HL-60
DLD-1 = tested on: DLD-1
KM-20L2 = tested on: KM-20L2
SNB-19 = tested on: SNB-19
EKVX = tested on: EKVX
OVCAR-3 = tested on: OVCAR-3
M19-MEL = tested on: M19-MEL
HT-29 = tested on: HT-29
RPMI-8226 = tested on: RPMI-8226
SNB-78 = tested on: SNB-78
RXF 631 = tested on: RXF 631
NCI-H23 = tested on: NCI-H23
SK-MEL-5 = tested on: SK-MEL-5
LOX IMVI = tested on: LOX IMVI
TK-10 = tested on: TK-10
MOLT-4 = tested on: MOLT-4
XF498 = tested on: XF498
NCI-H460 = tested on: NCI-H460
CAKI-1 = tested on: CAKI-1
UO-31 = tested on: UO-31
UACC-257 = tested on: UACC-257
OVCAR-4 = tested on: OVCAR-4
786-0 = tested on: 786-0
KM12 = tested on: KM12
HCT-116 = tested on: HCT-116
HCC 2998 = tested on: HCC 2998
OVCAR-5 = tested on: OVCAR-5
A549 = tested on: A549
HOP-62 = tested on: HOP-62
RXF 393 = tested on: RXF 393
SR = tested on: SR

Measured: GI50

C=C1c2c(cc3c(c2O)c(=O)c2ccccc2n3C)OC1(C)C
inactive: SF-295 22.5 µM | IGROV-1 32.7 µM | Malme-3M > 100 µM | NCI-H522 2.95 µM | SF-268 31.6 µM | NCI-H226 79.4 µM | SK-MEL-28 > 100 µM | U-251 50.1 µM | SF-539 35.2 µM | ACHN 46.9 µM | M14 > 100 µM | UACC-62 > 100 µM | COLO 205 > 100 µM | K562 > 10 µM | CCRF-CEM > 100 µM | SK-MEL-2 40.3 µM | DMS-273 > 100 µM | DMS-114 99.8 µM | LXFL 529 > 100 µM | SW-620 > 100 µM | OVCAR-8 52.6 µM | HOP-18 9.79 µM | HOP-92 15 µM | SNB-75 16.9 µM | SN12C > 100 µM | SK-OV-3 20 µM | A498 30.9 µM | HL-60 > 100 µM | DLD-1 > 100 µM | KM-20L2 8.71 µM | SNB-19 34.4 µM | EKVX > 100 µM | OVCAR-3 > 100 µM | M19-MEL > 100 µM | HT-29 37.7 µM | RPMI-8226 > 100 µM | SNB-78 37.2 µM | RXF 631 > 100 µM | NCI-H23 7.89 µM | SK-MEL-5 > 100 µM | LOX IMVI > 100 µM | TK-10 77.6 µM | MOLT-4 > 100 µM | XF498 28.6 µM | NCI-H460 59 µM | CAKI-1 > 100 µM | UO-31 > 100 µM
> 100 µM: HCT-15

COC(=O)C(Cc1nc2ccc(Cl)cc2nc1O)/C(=N/NC(N)=O)C(=O)Nc1ccc(Cl)cc1 (stereo not drawn)
inactive: SF-295 > 100 µM | UACC-257 > 100 µM | IGROV-1 > 100 µM | Malme-3M > 100 µM | NCI-H522 > 100 µM | SF-268 > 100 µM | NCI-H226 > 100 µM | SK-MEL-28 > 100 µM | OVCAR-4 > 100 µM | U-251 > 100 µM | SF-539 > 100 µM | 786-0 > 100 µM | ACHN > 100 µM | M14 > 100 µM | UACC-62 > 100 µM | KM12 > 100 µM | HCT-116 > 100 µM | COLO 205 > 100 µM | K562 > 100 µM | CCRF-CEM > 100 µM | SK-MEL-2 > 100 µM | DMS-273 > 100 µM | DMS-114 > 100 µM | LXFL 529 > 100 µM | HCC 2998 > 100 µM | OVCAR-5 > 100 µM | SW-620 > 100 µM | A549 > 100 µM | OVCAR-8 > 100 µM | HOP-18 > 100 µM | HOP-92 > 100 µM | SNB-75 > 100 µM | SN12C > 100 µM | SK-OV-3 > 100 µM | A498 > 100 µM | HL-60 > 100 µM | KM-20L2 > 100 µM | SNB-19 > 100 µM | EKVX 20.4 µM | OVCAR-3 > 100 µM | M19-MEL > 100 µM | HT-29 > 100 µM | RPMI-8226 > 100 µM | SNB-78 > 100 µM | RXF 631 > 100 µM | NCI-H23 > 100 µM | HOP-62 > 100 µM | SK-MEL-5 > 100 µM | LOX IMVI > 100 µM | TK-10 > 100 µM | MOLT-4 > 100 µM | XF498 > 100 µM | RXF 393 > 100 µM | SR > 100 µM | NCI-H460 > 100 µM | CAKI-1 > 100 µM | UO-31 > 100 µM
> 100 µM: HCT-15

COC(=O)CCC(NC(=S)N/N=C/c1ccccn1)C(=O)OC (stereo not drawn)
inactive: SF-295 > 100 µM | UACC-257 > 100 µM | IGROV-1 > 100 µM | Malme-3M > 100 µM | NCI-H522 > 100 µM | SF-268 > 100 µM | NCI-H226 > 100 µM | SK-MEL-28 > 100 µM | OVCAR-4 > 100 µM | U-251 > 100 µM | SF-539 > 100 µM | 786-0 > 100 µM | ACHN > 100 µM | M14 > 100 µM | UACC-62 > 100 µM | KM12 > 100 µM | HCT-116 > 100 µM | COLO 205 > 100 µM | K562 > 100 µM | CCRF-CEM > 100 µM | SK-MEL-2 > 100 µM | DMS-114 > 100 µM | LXFL 529 > 100 µM | HCC 2998 > 100 µM | OVCAR-5 63.1 µM | SW-620 > 100 µM | A549 > 100 µM | OVCAR-8 > 100 µM | HOP-18 > 100 µM | HOP-92 84.5 µM | SNB-75 > 100 µM | SN12C > 100 µM | SK-OV-3 > 100 µM | A498 > 100 µM | HL-60 84.3 µM | DLD-1 > 100 µM | KM-20L2 > 100 µM | SNB-19 > 100 µM | EKVX > 100 µM | OVCAR-3 > 100 µM | M19-MEL > 100 µM | HT-29 > 100 µM | RPMI-8226 > 100 µM | SNB-78 > 100 µM | RXF 631 > 100 µM | NCI-H23 > 100 µM | HOP-62 > 100 µM | SK-MEL-5 > 100 µM | LOX IMVI > 100 µM | TK-10 > 100 µM | MOLT-4 > 100 µM | XF498 > 100 µM | RXF 393 > 100 µM | SR 59.2 µM | NCI-H460 > 100 µM | UO-31 > 100 µM
> 100 µM: HCT-15
